pIC50: −log10 of the molar value. Converted amounts (≈) assume the structure as drawn. Read-outs that look alike come from different tables or passages of the source.

The target in data set [1] is T1, LMP2 (Homo sapiens, UniProt P28065+P40306).
T1 construct: endogenous in cells; host or cells: MOLT-4
Description: ProCISE proteasome subunit assay, LMP2. It counts as biochemical. Here is the method: (§1) This assay was used to assess the inhibitory activity against each of LMP2, LMP7, MECL1, β1, β2, and β5. Briefly, test compounds were serially diluted in DMSO at 100× concentration, then diluted to 10× in aqueous hypotonic lysis buffer. Lysate from the human acute lymphoblastic leukemia cell line, MOLT-4, was treated for 1 hour at 25° C. with compound at a final 1× concentration. […] Following this, lysate was denatured in guanidine hydrochloride, and subunits bound to probe were isolated with streptavidin-conjugated sepharose beads. Individual subunits were probed with subunit-specific primary antibodies, followed by HRP-conjugated secondary antibodies. A chemiluminescent substrate was used to generate signal associated with HRP binding, which was detected on a plate reader. Luminescent signal was normalized to protein content, then, percent activity calculated relative to DMSO-treated controls to generate IC50 curves.

Data set [2] has as its target T2, LMP7 (Homo sapiens, UniProt P20618+P28062).
T2 construct: endogenous in cells; host or cells: MOLT-4
In words: ProCISE proteasome subunit assay, LMP7. It counts as biochemical. The note with it: MOLT4 lysate Hu 1 h. A digest of the protocol:
(§2)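 MOLT-4 cell lysate was incubated with compound for 1 h at 25° C, then a subunit-binding probe was applied; probe-bound subunits were pulled down on streptavidin beads after guanidine denaturation and detected with subunit-specific antibodies by HRP chemiluminescence. Signal was normalized to protein and expressed as percent of DMSO control to fit IC50.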

Data set [3] deals with T3, β5 (Homo sapiens, UniProt P20618+P28074).
T3 construct: endogenous in cells; host or cells: MOLT-4
Description: ProCISE proteasome subunit assay, β5. Type of data set: biochemical. The note with it: MOLT4 lysate Hu 1 h. A digest of the protocol:
as §2

A short description of data set [4]: Solubility pH 7. The settings on record: pH 7, aqueous buffer. It counts as physicochemical.
For data set [5], the target named is i20S (20S immunoproteasome) (Homo sapiens, UniProt P20618+P28062). Description: 20S proteasome assay, chymotrypsin-like activity (LLVY), i20S. It counts as biochemical. The settings on record: LLVY i20S Hu 1 h CONT: IC50 (nM), succinyl-Leu-Leu-Val-Tyr-AMC. An excerpt: (§3) Assay buffer consisted of TE buffer [20 mmol/L Tris (pH 8.0), 0.5 mmol/L EDTA] with (20S) or without (cell lysate) 0.03% SDS. Reactions were initiated by enzyme or lysate addition and monitored for AMC product formation at 27jC with a plate-based spectofluorometer (Tecan).

The target in data set [6] is c20S (constitutive 20S proteasome) (Homo sapiens, UniProt P20618+P28074). Description: 20S proteasome assay, chymotrypsin-like activity (LLVY), c20S. It counts as biochemical. The note with it: LLVY c20S Hu 1 h CONT: IC50 (nM), succinyl-Leu-Leu-Val-Tyr-AMC.
Text: as §3

Data set [7] has as its target MECL1 (Homo sapiens, UniProt P40306+P49720). Description: ProCISE proteasome subunit assay, MECL1. Type of data set: biochemical. The note with it: MOLT-4 lysate, 1 hour at 25° C. The method, then: as §1
In data set [8] the target is β1 (Homo sapiens, UniProt P28072+Q99436). In words: ProCISE proteasome subunit assay, β1. It counts as biochemical. The settings on record: MOLT-4 lysate, 1 hour at 25° C. The method, then: as §1
Data set [9] concerns the target β2 (Homo sapiens, UniProt P49720+Q99436). In words: ProCISE proteasome subunit assay, β2. Type of data set: biochemical. The note with it: MOLT-4 lysate, 1 hour at 25° C. Here is the method:
as §1

The solubility is how much of the substance goes into solution per volume. A word on the IC50: it is the concentration that inhibits the measured activity by half. Higher therefore signals a need for much substance. Consider `COc1ccc(C[C@H](NC(=O)[C@@H](C)NC(=O)c2ncc[nH]2)C(=O)N[C@@H](CC2CCCC2)C(=O)[C@@]2(C)CO2)cc1` [Compound C-2034, N—((R)-1-(((S)-1-(((S)-3-cyclopentyl-1-((R)-2-methyloxiran-2-yl)-1-oxopropan-2-yl)amino)-3-(4-methoxyphenyl)-1-oxopropan-2-yl)amino)-1-oxopropan-2-yl)-1H-imidazole-2-carboxamide], for which the pIC50 is 6.33 in [1] (MOLT4 lysate Hu 1 h), 4.71 in data set [2] and under 3.60 in [3]. The solubility in data set [4] stood at 55.5 µg/mL (≈ 103 µM). The IC50 in data set [5] was determined as 19500 nM; in [6], 64400 nM.

`COc1ccc(C[C@H](NC(=O)c2cccc(=O)[nH]2)C(=O)N[C@@H](Cc2ccccc2)C(=O)[C@@]2(C)CO2)cc1` [Compound C-3008, N—((S)-3-(4-Methoxyphenyl)-1-(((S)-1-((R)-2-methyloxiran-2-yl)-1-oxo-3-phenylpropan-2-yl)amino)-1-oxopropan-2-yl)-6-oxo-1,6-dihydropyridine-2-carboxamide] showed an IC50 in [1] (ProCISE LMP2 MOLT4 lysate Hu 1 h CONT: IC50 (nM), MOLT4 lysate Hu 1 h) of 109 nM. Further, the pIC50 in data set [1] (ProCISE, MOLT-4 lysate, 1 hour at 25° C., read-out: LMP2) is 6.96; in [7], under 3.60; in data set [8] it was 4.00; in data set [9] it was under 3.60.

`COc1ccc(C[C@H](NC(=O)[C@H]2CCCC(=O)N2)C(=O)N[C@@H](Cc2ccccc2)C(=O)[C@@]2(C)CO2)cc1` [Compound C-3009, (R)—N—((S)-3-(4-Methoxyphenyl)-1-(((S)-1-((R)-2-methyloxiran-2-yl)-1-oxo-3-phenylpropan-2-yl)amino)-1-oxopropan-2-yl)-6-oxopiperidine-2-carboxamide]: the pIC50 was 6.29 in [1] (MOLT4 lysate Hu 1 h), 5.34 in [2] and 5.08 in data set [3]. Besides, the 50% inhibitory concentration (IC50) amounted to 9890 nM in data set [5] and 87800 nM in data set [6].

Values taken from patent US9657057B2, “Dipeptide and tripeptide epoxy ketone protease inhibitors” (Onyx Therapeutics, Inc., priority 2013, dated 2017).
